Measured values from patent publication US9206159B2, “Piperazine-piperidine compounds as hepatitis C virus inhibitors” (Theravance Biopharma R&D IP, LLC, priority 2012, dated 2015).

System: HCV genotype 1a replicon cell line
Assay: HCV Genotype 1a Replicon Assay
Type: cell-based, hepatitis C virus
Conditions: Huh7.5 cell background, NS3-specific protease activity in lysates, 48 or 72 hours
Method: Assay 2: HCV Genotype 1a Replicon Assay
The HCV genotype 1a replicon cell line was obtained from Apath LLC (APC89; Huh7.5 cell background). This subgenomic replicon contains the N-terminus of the HCV core protein fused to the neomycin-resistance selectable marker. The EMCV IRES lies downstream and drives expression of the non-structural proteins NS3-NS5B. Compound potencies were determined using the NS3-specific protease activity in lysates as a measurement of compound inhibition of replicon levels.
Cells were grown at 37° C. in a 5% CO2 humidified incubator in DMEM (Invitrogen) with 10% FBS (HyClone), 1×NEAA (Invitrogen), 1× Pen-Strep (Invitrogen), and 850 μg/mL G418 (Invitrogen). On day 1 of the assay, cells were plated at 15,000 cells/well in black 96-well tissue culture plates (Costar) in 200 μL media lacking G418. Four hours later, once the cells had adhered, the media was removed and replaced with media (no G418) containing dose-responses of test compounds. Compounds were initially diluted in DMSO and then diluted another 200× in media to bring the final DMSO concentration down to 0.5%. The cells were incubated with test compounds for 48 or 72 hours. At the end of the incubation period, media and compound were removed from the plates.
To determine the NS3-specific protease activity in lysates, the cells were lysed at room temperature in 50 μL/well of 50 mM Hepes pH 7.5, 150 mM NaCl, 15% Glycerol, 0.15% Triton X-100, 10 mM DTT for 20 minutes with shaking. 50 μL of an NS3/4a protease-specific FRET substrate (Anaspec RET SI Cat#22991) was then added to the wells at a final concentration of 15 μM. The plates were incubated at 37° C. for 20 minutes, which corresponds to a timepoint at which the protease activity is still in the linear phase. Protease activity was determined by measuring fluorescence (Excitation: 340 nm; Emission: 509 nm).
To analyze the data, the fluorescence was plotted vs. the compound concentration, and EC50 values were determined from a 4-parameter robust fit model using GraphPad Prism software.

Structure (SMILES)	Genotype 1a (pEC50 class)	EC50 (Hepatitis C virus, read-out: Genotype 1a (pEC50 class) (converted)) [nM]
COC(=O)NC(C(=O)N1CCCC1c1nc(-c2ccc(-c3ccc(NC(=O)N4CCN(C5CCN(C(=O)OC(C)(C)C)CC5)C(C)C4)cc3OC(F)(F)F)cc2)c[nH]1)C(C)C (stereo not shown) [Example 1-38]	B (B represents pEC50 between 8 and 9 (EC50 between 1 and 10 nM))	
CNC(=O)N1CCC(N2CCN(C(=O)Nc3ccc(-c4ccc(-c5c[nH]c(C6CCCN6C(=O)C(NC(=O)OC)C(C)C)n5)cc4)c(OC(F)(F)F)c3)CC2C)CC1 (stereo not shown) [Example 1-39]	B (B represents pEC50 between 8 and 9 (EC50 between 1 and 10 nM))	
COC(=O)NC(C(=O)N1CCCC1c1nc(-c2ccc(-c3ccc(NC(=O)N4CCN(C5CCN(C(=O)C6CC6)CC5)C(C)C4)cc3OC(F)(F)F)cc2)c[nH]1)C(C)C (stereo not shown) [Example 1-40]	B (B represents pEC50 between 8 and 9 (EC50 between 1 and 10 nM))	
COC(=O)N[C@H](C(=O)N1CCC[C@H]1c1nc(-c2ccc(-c3ccc(NC(=O)N4CCN(C5CCN(C(=O)C6CC6)CC5)C[C@@H]4C)cc3OC(F)(F)F)cc2)c[nH]1)C(C)C [Example 1-41]	B (B represents pEC50 between 8 and 9 (EC50 between 1 and 10 nM))	
COC(=O)NC(C(=O)N1CCCC1c1nc(-c2ccc(-c3ccc(NC(=O)N4CCN(C5CCN(C(=O)C(C)(C)C)CC5)C(CO)C4)cc3OC(F)(F)F)cc2)c[nH]1)C(C)C (stereo not shown) [Example 1-42]	B (B represents pEC50 between 8 and 9 (EC50 between 1 and 10 nM))	
CNC(=O)N1CCC(N2CCN(C(=O)Nc3ccc(-c4ccc(-c5c[nH]c(C6CCCN6C(=O)C(NC(=O)OC)C(C)C)n5)cc4)c(OC(F)(F)F)c3)CC2CO)CC1 (stereo not shown) [Example 1-43]	A (A represents a pEC50 value between 6 and 8 (EC50 between 1 μM and 10 nM))	
COC(=O)NC(C(=O)N1CCCC1c1nc(-c2ccc(-c3ccc(NC(=O)N4CCN(C5CCN(C(=O)C6CC6)CC5)C(CO)C4)cc3OC(F)(F)F)cc2)c[nH]1)C(C)C (stereo not shown) [Example 1-44]	A (A represents a pEC50 value between 6 and 8 (EC50 between 1 μM and 10 nM))	
COC(=O)NC(C(=O)N1CCCC1c1nc(-c2ccc(-c3ccc(NC(=O)N4CCN(C5CCN(C(=O)C6CC6(C)C)CC5)C(CO)C4)cc3OC(F)(F)F)cc2)c[nH]1)C(C)C (stereo not shown) [Example 1-45]	B (B represents pEC50 between 8 and 9 (EC50 between 1 and 10 nM))	
COC(=O)N[C@H](C(=O)N1C[C@@H](C)C[C@H]1c1nc(-c2ccc(-c3cc(Cl)c(NC(=O)N4CCN(C5CCN(C(=O)C6CC6(Cl)Cl)CC5)CC4)cc3OC(F)(F)F)cc2)c[nH]1)C(C)C (stereo partly drawn) [Example 2, [(S)-1-((S)-2-{4-[5′-Chloro-4′-({4-[1-(2,2-dichloro-cyclopropanecarbonyl)-piperidin-4-yl]-piperazine-1-carbonyl}-amino)-2′-trifluoromethoxy-biphenyl-4-yl]-1H-imidazol-2-yl}-4-methyl-pyrrolidine-1-carbonyl)-2-methyl-propyl]-carbamic acid methyl ester]		1 to 10
COC(=O)N[C@H](C(=O)N1C[C@@H](C)C[C@H]1c1nc(-c2ccc(-c3ccc(NC(=O)N4CCN(C5CCN(C(=O)C6CC6)CC5)CC4)cc3OC(F)(F)F)cc2)c[nH]1)C(C)C [Example 2-1]	D (D represents pEC50>10 (EC50<0.1 nM))	
COC(=O)N[C@H](C(=O)N1C[C@@H](C)C[C@H]1c1nc(-c2ccc(-c3cc(F)c(NC(=O)N4CCN(C5CCN(C(=O)OC(C)(C)C)CC5)CC4)cc3OC(F)(F)F)cc2)c[nH]1)C(C)C [Example 2-2]	D (D represents pEC50>10 (EC50<0.1 nM))	
COC(=O)N[C@H](C(=O)N1C[C@@H](C)C[C@H]1c1nc(-c2ccc(-c3cc(F)c(NC(=O)N4CCN(C5CCN(C(=O)C6CC6)CC5)CC4)cc3OC(F)(F)F)cc2)c[nH]1)C(C)C [Example 2-3]	D (D represents pEC50>10 (EC50<0.1 nM))	
CNC(=O)N1CCC(N2CCN(C(=O)Nc3cc(OC(F)(F)F)c(-c4ccc(-c5c[nH]c([C@@H]6C[C@H](C)CN6C(=O)[C@@H](NC(=O)OC)C(C)C)n5)cc4)cc3F)CC2)CC1 [Example 2-4]	D (D represents pEC50>10 (EC50<0.1 nM))	
CNC(=O)N1CCC(N2CCN(C(=O)Nc3cc(OC(F)(F)F)c(-c4ccc(-c5c[nH]c([C@@H]6C[C@H](C)CN6C(=O)[C@@H](NC(=O)OC)C(C)C)n5)cc4)cc3Cl)CC2)CC1 [Example 2-7]	C (C represents pEC50 between and 9 and about 10, (EC50 between 1 nM and 0.1 nM))	
COC(=O)N[C@H](C(=O)N1C[C@@H](C)C[C@H]1c1nc(-c2ccc(-c3cc(Cl)c(NC(=O)N4CCN(C5CCN(C(=O)OC(C)(C)C)CC5)CC4)cc3OC(F)(F)F)cc2)c[nH]1)C(C)C [Example 2-8]	C (C represents pEC50 between and 9 and about 10, (EC50 between 1 nM and 0.1 nM))	
COC(=O)N[C@H](C(=O)N1C[C@@H](C)C[C@H]1c1nc(-c2ccc(-c3ccc(NC(=O)N4CCN(C5CCN(C(=O)C6CC6(F)F)CC5)CC4)cc3OC(F)(F)F)cc2)c[nH]1)C(C)C (stereo partly shown) [Example 2-10]	C (C represents pEC50 between and 9 and about 10, (EC50 between 1 nM and 0.1 nM))	
COC(=O)N[C@H](C(=O)N1C[C@@H](C)C[C@H]1c1nc(-c2ccc(-c3ccc(NC(=O)N4CCN(C5CCN(C(=O)[C@H]6CC6(C)C)CC5)CC4)cc3OC(F)(F)F)cc2)c[nH]1)C(C)C [Example 2-11]	D (D represents pEC50>10 (EC50<0.1 nM))	
CNC(=O)N1CCC(N2CCN(C(=O)Nc3ccc(-c4ccc(-c5c[nH]c([C@@H]6C[C@H](C)CN6C(=O)[C@@H](NC(=O)OC)C(C)C)n5)cc4)c(OC(F)(F)F)c3)CC2)CC1 [Example 2-12]	C (C represents pEC50 between and 9 and about 10, (EC50 between 1 nM and 0.1 nM))	
COC(=O)N[C@H](C(=O)N1C[C@@H](C)C[C@H]1c1nc(-c2ccc(-c3cc(F)c(NC(=O)N4CCN(C5CCN(C(=O)C6CC6(F)Cl)CC5)CC4)cc3OC(F)(F)F)cc2)c[nH]1)C(C)C (stereo partly shown) [Example 2-14]	C (C represents pEC50 between and 9 and about 10, (EC50 between 1 nM and 0.1 nM))	
COC(=O)N[C@H](C(=O)N1C[C@@H](C)C[C@H]1c1nc(-c2ccc(-c3cc(F)c(NC(=O)N4CCN(C5CCN(C(=O)C6CC6(Cl)Cl)CC5)CC4)cc3OC(F)(F)F)cc2)c[nH]1)C(C)C (stereo partly shown) [Example 2-15]	C (C represents pEC50 between and 9 and about 10, (EC50 between 1 nM and 0.1 nM))	
COC(=O)N[C@H](C(=O)N1C[C@@H](C)C[C@H]1c1nc(-c2ccc(-c3ccc(NC(=O)N4CCN(C5CCN(C(=O)OC(C)(C)C)CC5)CC4)cc3OC(F)(F)F)cc2)c(Cl)[nH]1)C(C)C [Example 2-18]	C (C represents pEC50 between and 9 and about 10, (EC50 between 1 nM and 0.1 nM))	
COC(=O)N[C@H](C(=O)N1C[C@@H](C)C[C@H]1c1nc(-c2ccc(-c3cc(Cl)c(NC(=O)N4CCN(C5CCN(C(=O)C6CC(F)(F)C6)CC5)CC4)cc3OC(F)(F)F)cc2)c[nH]1)C(C)C [Example 2-22]	B (B represents pEC50 between 8 and 9 (EC50 between 1 and 10 nM))	
[2H]C([2H])([2H])C1(C([2H])([2H])[2H])CC1C(=O)N1CCC(N2CCN(C(=O)Nc3cc(OC(F)(F)F)c(-c4ccc(-c5c[nH]c([C@@H]6C[C@H](C)CN6C(=O)[C@@H](NC(=O)OC)C(C)C)n5)cc4)cc3Cl)CC2)CC1 (stereo partly shown) [Example 2-23]	C (C represents pEC50 between and 9 and about 10, (EC50 between 1 nM and 0.1 nM))	
COC(=O)N[C@H](C(=O)N1C[C@@H](C)C[C@H]1c1nc(-c2ccc(-c3cc(Cl)c(NC(=O)N4CCN(C5CCN(C(=O)C6CC67CC7)CC5)CC4)cc3OC(F)(F)F)cc2)c[nH]1)C(C)C (stereo partly shown) [Example 2-24]	B (B represents pEC50 between 8 and 9 (EC50 between 1 and 10 nM))	
COC(=O)N[C@H](C(=O)N1C[C@@H](C)C[C@H]1c1nc(-c2ccc(-c3cc(Cl)c(NC(=O)N4CCN(C5CCN(C(=O)C6CC(C)(C)C6)CC5)CC4)cc3OC(F)(F)F)cc2)c[nH]1)C(C)C [Example 2-25]	B (B represents pEC50 between 8 and 9 (EC50 between 1 and 10 nM))	
COC(=O)N[C@H](C(=O)N1C[C@@H](C)C[C@H]1c1nc(-c2ccc(-c3ccc(NC(=O)N4CCN(C5CCN(C(=O)C6CC6)CC5)CC4)cc3OC(F)(F)F)cc2)c(Cl)[nH]1)C(C)C [Example 2-26]	D (D represents pEC50>10 (EC50<0.1 nM))	
[2H]C([2H])([2H])C1(C([2H])([2H])[2H])CC1C(=O)N1CCC(N2CCN(C(=O)Nc3ccc(-c4ccc(-c5nc([C@@H]6C[C@H](C)CN6C(=O)[C@@H](NC(=O)OC)C(C)C)[nH]c5Cl)cc4)c(OC(F)(F)F)c3)CC2)CC1 (stereo partly shown) [Example 2-27]	D (D represents pEC50>10 (EC50<0.1 nM))	
COC(=O)N[C@H](C(=O)N1C[C@@H](C)C[C@H]1c1nc(-c2ccc(-c3ccc(NC(=O)N4CCN(C5CCN(C(=O)OC(C)(C)C)CC5)CC4)cc3OC(F)(F)F)cc2)c(F)[nH]1)C(C)C [Example 2-28]	D (D represents pEC50>10 (EC50<0.1 nM))	
